Measurements from ChEMBL document CHEMBL4706515, “Discovery of new [1,2,4] Triazolo[1,5-a]Pyrimidine derivatives that Kill gastric cancer cells via the mitochondria pathway” (Eur J Med Chem, 2020).
Activity calls are given as the source filed them. No cut-off for these calls is given here.

Columns and labels:
[1] = test system: SGC-7901; experiment: Induction of apoptosis in human SGC-7901 cells assessed as late apoptotic cells at 0.625 uM measure after 24 hrs by Annexin-PI staining based Flowcytometry method (reference value: 1.29%); assay type: functional
[2] = test system: MGC-803; experiment: Induction of apoptosis in human MGC-803 cells assessed as accumulation of cleaved caspase 3 protein at 0.625 to 10 uM measured after 24 hrs by western blot assay; assay type: functional, cell-based; settings: dose 0.625-10 µM
[3] = test system: SGC-7901; experiment: Induction of apoptosis in human SGC-7901 cells assessed as viable cells at 2.5 uM measure after 24 hrs by Annexin-PI staining based Flowcytometry method (reference value: 94.9%); assay type: functional; settings: read-out: Activity
[4] = test system: MGC-803; experiment: Induction of apoptosis in human MGC-803 cells assessed as accumulation of cleaved caspase 9 protein at 0.625 to 10 uM measured after 24 hrs by western blot assay; assay type: functional, cell-based; settings: dose 0.625-10 µM
[5] = test system: SGC-7901; experiment: Induction of apoptosis in human SGC-7901 cells assessed as necrotic cells at 1.25 uM measure after 24 hrs by Annexin-PI staining based Flowcytometry method (reference value: 1.16%); assay type: functional
[6] = test system: MGC-803; experiment: Antiproliferative activity against human MGC-803 cells assessed as inhibition of cell growth at measured after 72 hrs by SRB assay; assay type: functional
[7] = test system: MGC-803; experiment: Cell cycle arrest in human MGC-803 cells assessed as accumulation of cells in G2/M phase at 10 uM measured after 24 hrs by PI staining based flow cytometry; assay type: functional
[8] = test system: MGC-803; experiment: Inhibition of cell proliferation in human MGC-803 cells at 2.5 uM measured after 72 hrs by SRB assay; assay type: functional, cell-based
[9] = test system: MGC-803; experiment: Induction of apoptosis in human MGC-803 cells assessed as necrotic cells at 2.5 uM measure after 24 hrs by Annexin-PI staining based Flowcytometry method (reference value: 3.13%); assay type: functional
[10] = test system: MGC-803; experiment: Induction of apoptosis in human MGC-803 cells assessed as increase in accumulation of LC3B-2 preincubated with Chloroquine measured after 24 hrs by western blot assay; assay type: functional, cell-based
[11] = test system: MGC-803; experiment: Induction of apoptosis in human MGC-803 cells assessed as late apoptotic cells at 1.25 uM measure after 24 hrs by Annexin-PI staining based Flowcytometry method (reference value: 7.06%); assay type: functional
[12] = test system: MGC-803; experiment: Induction of apoptosis in human MGC-803 cells assessed as early apoptotic cells at 2.5 uM measure after 24 hrs by Annexin-PI staining based Flowcytometry method (reference value: 9.8%); assay type: functional
[13] = test system: MGC-803; experiment: Induction of apoptosis in human MGC-803 cells assessed as early apoptotic cells at 1.25 uM measure after 24 hrs by Annexin-PI staining based Flowcytometry method (reference value: 9.8%); assay type: functional
[14] = test system: MGC-803; experiment: Induction of morphological changes in human MGC-803 cells assessed as cell shrinkage at 10 uM incubated for 1 hrs by bright field microscopic analysis; assay type: functional, cell-based
[15] = test system: MGC-803; experiment: Induction of apoptosis in human MGC-803 cells assessed as early apoptotic cells at 10 uM measure after 24 hrs by Annexin-PI staining based Flowcytometry method (reference value: 9.8%); assay type: functional
[16] = test system: EJ; experiment: Antiproliferative activity against human EJ cells assessed as inhibition of cell growth at measured after 72 hrs by SRB assay; assay type: functional
[17] = test system: SGC-7901; experiment: Induction of apoptosis in human SGC-7901 cells assessed as late apoptotic cells at 2.5 uM measure after 24 hrs by Annexin-PI staining based Flowcytometry method (reference value: 1.29%); assay type: functional
[18] = test system: SGC-7901; experiment: Induction of apoptosis in human SGC-7901 cells assessed as necrotic cells at 0.625 uM measure after 24 hrs by Annexin-PI staining based Flowcytometry method (reference value: 1.16%); assay type: functional
[19] = test system: MGC-803; experiment: Induction of apoptosis in human MGC-803 cells assessed as decrease in accumulation of cleaved PARP preincubated with Chloroquine measured after 24 hrs by western blot assay; assay type: functional, cell-based
[20] = test system: MGC-803; experiment: Induction of morphological changes in human MGC-803 cells assessed as cell shrinkage at 5 uM incubated for 1 hrs by bright field microscopic analysis; assay type: functional, cell-based
[21] = test system: SGC-7901; experiment: Inhibition of cell proliferation in human SGC-7901 cells at 2.5 uM measured after 72 hrs by SRB assay; assay type: functional, cell-based
[22] = test system: MGC-803; experiment: Induction of apoptosis in human MGC-803 cells assessed as increase in accumulation of cleaved PARP measured after 24 hrs by western blot assay; assay type: functional, cell-based
[23] = test system: SGC-7901; experiment: Induction of apoptosis in human SGC-7901 cells assessed as late apoptotic cells at 1.25 uM measure after 24 hrs by Annexin-PI staining based Flowcytometry method (reference value: 1.29%); assay type: functional
[24] = test system: MGC-803; experiment: Induction of apoptosis in human MGC-803 cells assessed as viable cells at 1.25 uM measure after 24 hrs by Annexin-PI staining based Flowcytometry method (reference value: 80%); assay type: functional; settings: read-out: Activity
[25] = test system: MGC-803; experiment: Induction of apoptosis in human MGC-803 cells assessed as viable cells at 0.625 uM measure after 24 hrs by Annexin-PI staining based Flowcytometry method (reference value: 80%); assay type: functional; settings: read-out: Activity
[26] = test system: MGC-803; experiment: Induction of apoptosis in human MGC-803 cells assessed as increase in ROS production preincubated for 1 hr with NAC followed by compound addition at 5 uM measured after 24 hrs by DCHF-DA staining based Flowcytometry method; assay type: functional, cell-based
[27] = test system: MGC-803; experiment: Induction of mitochondrial membrane potential loss in human MGC-803 cells at 5 uM measured after 24 hrs by JC-1 staining based flow cytometry method (reference value: 0.344%); settings: Mitochondria
[28] = test system: MGC-803; experiment: Cytotoxicity against human MGC-803 cells assessed as inhibition of cell viability incubated for 1 hr with Z-LEHD-FMK followed by addition of compound; assay type: functional, cell-based
[29] = test system: HGC-27; experiment: Antiproliferative activity against human HGC-27 cells assessed as inhibition of cell growth at measured after 72 hrs by SRB assay; assay type: functional
[30] = test system: MGC-803; experiment: Antiproliferative activity against human MGC-803 cells assessed as inhibition of cell growth incubated with compound for 1 to 24 hrs and measured 72 hrs after replacement of media by SRB assay; assay type: functional, cell-based; settings: time 1-24 hrs
[31] = test system: SGC-7901; experiment: Induction of apoptosis in human SGC-7901 cells assessed as late apoptotic cells at 5 uM measure after 24 hrs by Annexin-PI staining based Flowcytometry method (reference value: 1.29%); assay type: functional
[32] = test system: MGC-803; experiment: Induction of apoptosis in human MGC-803 cells assessed as viable cells at 5 uM measure after 24 hrs by Annexin-PI staining based Flowcytometry method (reference value: 80%); assay type: functional; settings: read-out: Activity
[33] = test system: SGC-7901; experiment: Induction of apoptosis in human SGC-7901 cells assessed as viable cells at 1.25 uM measure after 24 hrs by Annexin-PI staining based Flowcytometry method (reference value: 94.9%); assay type: functional; settings: read-out: Activity
[34] = test system: BGC-823; experiment: Antiproliferative activity against human BGC-823 cells assessed as inhibition of cell growth at measured after 72 hrs by SRB assay; assay type: functional
[35] = test system: MGC-803; experiment: Induction of apoptosis in human MGC-803 cells assessed as accumulation of cleaved PARP protein at 0.625 to 10 uM measured after 24 hrs by western blot assay; assay type: functional, cell-based; settings: dose 0.625-10 µM
[36] = test system: MGC-803; experiment: Induction of mitochondrial membrane potential loss in human MGC-803 cells at 1.25 uM measured after 24 hrs by JC-1 staining based flow cytometry method (reference value: 0.344%); settings: Mitochondria
[37] = test system: MGC-803; experiment: Induction of apoptosis in human MGC-803 cells assessed as viable cells at 10 uM measure after 24 hrs by Annexin-PI staining based Flowcytometry method (reference value: 80%); assay type: functional; settings: read-out: Activity

With `Cc1cc(Nc2ccc(C(=O)/C=C/c3cccc(Br)n3)cc2)n2nc(SCc3nc4ccccc4[nH]3)nc2n1` the Activity [1] was 1.55%, the Activity [2] was “Active” and the viability at 2.5 µM [3] was 88.3%. For the same compound, the Activity [4] was “Active”, the Activity [5] was 2.24% and the GI50 [6] was 640 nM. The Activity [7] was “Active”, the inhibition [8] was “inactive” and the Activity [9] was 1.75%. For the same compound, the Activity [10] was “Active”, the Activity [11] was 1.95% and the Activity [12] was 7.11%. The Activity [13] was 7.21%, the Activity [14] was “Active” and the Activity [15] was 9.48%. For the same compound, the GI50 [16] was over 10000 nM, the Activity [17] was 5.53% and the Activity [18] was 1.96%. For the same compound, the Activity [19] was “inactive”, the Activity [20] was “Active” and the inhibition [21] was “inactive”. The Activity [22] was “Active”, the Activity [23] was 1.37% and the viability at 1.25 µM [24] was 88.6%. For the same compound, the viability at 0.625 µM [25] was 91.6%, the Activity [26] was “inactive” and the Activity [27] was 3.13%. The inhibition [28] was “inactive”, the GI50 [29] was 640 nM and the inhibition [30] was “Active”. The Activity [31] was 29.8%, the viability at 5 µM [32] was 73.8% and the viability at 1.25 µM [33] was 94.8%. For the same compound, the GI50 [34] was 640 nM, the Activity [35] was “Active” and the Activity [36] was 10.1%. For the same compound, the viability at 10 µM [37] was 45.3%.
